Entries after “also recorded” stand apart in the source; their conditions may differ. Where two headings read alike, the source gives them in different places.
Experiments:
Type in all cases: cell-based
OVCAR8 (ovarian cancer) = test: In vitro cytotoxicity, neutral red uptake; details: 24 h treatment, read-out: anticancer activity (IC50) OVCAR8
Description: (§1) Cells (250000/well) were cultured in 24-well plates for 24 h to 70-80% confluence or cells (20000/well) were cultured in 96-well plates for 24 h or overnight to 70-80% confluence. Four 24-well plates and one 96-well plate have been seeded. The following concentrations of the compounds were examined (each one in triplicate)-0 microgram/μl, 0.05 microgram/ml, 0.5 microgram/ml, 5 microgram/ml, 50 microgram/ml. The volume of wells in 24-well plates was 0.5 ml while that of 96-well plates was 0.1 ml. After the 24 h treatment the culture medium in the wells were replaced with 0.5 ml fresh medium containing 1:100 dilution of neutral red (10 microliters/1 ml). The plates were incubated for 2 h in a dark in culture incubator. The medium was aspirated and the cells washed twice with 0.5/0.1 ml of solution containing 1% CaCl2 and 0.5% formaldehyde. The dye was extracted from cells upon addition of 0.5/0.1 ml 1% glacial acetic acid in 50% ethanol with 10 min incubation at room temperature. The absorbance was measured spectrophotometrically at a wavelength of 540 nm. The background absorbance measurement of the multiwell plates was done at 690 nm and subtract from 540 nm.

MCF-7 (breast cancer) = test: In vitro cytotoxicity, neutral red uptake; details: MCF7 wt cells, 24 h treatment, read-out: anticancer activity (IC50) MCF7 wt
Description: as §1

[1] = test system: MDM-MD-A31 (renal cancer); test: In vitro cytotoxicity, neutral red uptake; details: MDM-MD-A31 cells, 24 h treatment, read-out: anticancer activity (IC50) MDM-MD-A31
Description: as §1

[2] = test system: NCI-ADR (associated with multidrug resistance (MDR) phenomena ovarian cancer); test: In vitro cytotoxicity, neutral red uptake; details: NCIADR cells, 24 h treatment, read-out: anticancer activity (IC50) NCIADR
Description: as §1

HT29 (colon carcinoma) = test: In vitro cytotoxicity, neutral red uptake; details: 24 h treatment, read-out: anticancer activity (IC50) HT29
Description: as §1

H1299 (lung carcinoma) = test: In vitro cytotoxicity, neutral red uptake; details: 24 h treatment, read-out: anticancer activity (IC50) H1299
Description: as §1

[3] = test system: MCF-7mito (mitoxantrone selected and associated with MDR phenomena breast cancer); test: In vitro cytotoxicity, neutral red uptake; details: read-out: anticancer activity (IC50) MCF7 mito
Description: as §1

[4] = test system: cancer cell lines MDM-MD-A31, MCF-7, HT29, OVCAR8, NCI-ADR, MCF-7mito and H1299; test: In vitro cytotoxicity, all tested cancer cell lines; details: statement in words
Description: as §1

[5] = Homo sapiens, OVCAR-8, OVCAR8 cells
[6] = Homo sapiens, HT-29, HT29 cells
[7] = Homo sapiens, NCI-H1299, H1299 cells
[8] = Homo sapiens, MCF7 mito cells, 24 h treatment, neutral red

| Compound | IC50 (OVCAR8 (ovarian cancer); [5]) [µM] | IC50 (MCF-7 (breast cancer); Homo sapiens) [µM] | IC50 [1] [µM] | IC50 ([2]; Homo sapiens, NCI/ADR-RES) [µM] | IC50 (HT29 (colon carcinoma); [6]) [µM] | IC50 (H1299 (lung carcinoma); [7]) [µM] | IC50 [3, 8] [µM] | further results |
| --- | --- | --- | --- | --- | --- | --- | --- | --- |
| Oc1ccc2ccccc2c1CNc1c2ccccc2nc2ccccc12 [Compound 8, N-(2-hydroxy-naphthylmethyl)acridin-9-amine] | 9.1 | 14.1 | 13.2 | 42.3 | 2.6 | 62.6 | 1.8 | – |
| Nc1c2ccccc2nc2ccccc12 [9-aminoacridine] | 1.7 | 11.2 | 1.5 | 21 | 2.25 | 32.8 | 163 | – |
| O=[N+]([O-])c1cccnc1Nc1c2ccccc2nc2ccccc12 [Compound 21, N-(3-nitropyrid-2-yl)acridin-9-amine] | – | – | 0.8 | – | – | 0.7 | 1.6 | – |
| O=[N+]([O-])c1ccccc1Nc1c2ccccc2nc2ccccc12 [Compound 10, N-(2-nitrophenyl)acridin-9-amine] | > 100 | > 100 | > 100 | 40.3 | 74.2 | > 100 | 46.7 | – |
| NCCCCC(NC(=O)c1ccc(Nc2c3ccccc3nc3ccccc23)c([N+](=O)[O-])c1)C(N)=O (stereo not drawn) [Compound 46, 4-(acridin-9-ylamino)-N-(1,6-diamino-1-oxohex-2-yl)-3-nitro-benzamide] | 15.4 | 58.6 | 75.6 | 86.4 | 7.14 | > 100 | 18.4 | – |
| O=C(NC(CO)C(=O)O)c1ccc(Nc2c3ccccc3nc3ccccc23)c([N+](=O)[O-])c1 (stereo not drawn) [Compound 42, (2-(4-(acridin-9-ylamino)-3-nitrobenzamido)-3-hydroxypropanoic acid)] | – | – | 0.4 | – | 2.2 | – | 4.5 | – |
| O=C1C(Cl)=C(Nc2c3ccccc3nc3ccccc23)C(=O)c2ccccc21 [Compound 39, 2-(acridin-9-ylamino)-3-chloronaphthoquinone] | 1.2 | – | 0.15 | – | – | – | 0.8 | – |
| O=C1C(Br)=C(Br)C(=O)C(Nc2c3ccccc3nc3ccccc23)=C1Br [Compound 38, 2-(acridin-9-ylamino)-3,5,6-tribromobenzoquinone] | 3.7 | – | – | – | – | – | – | – |
| O=[N+]([O-])c1ccc(Nc2c3ccccc3nc3ccccc23)c([N+](=O)[O-])c1 [Compound 12, N-(2,4-dinitrophenyl)acridin-9-amine] | 33.8 | 89.1 | > 100 | 15.4 | 71.3 | > 100 | – | IC50 ([3]; Homo sapiens, MCF7, 24 h): 7.2 µM |
| O=C(O)c1ccc(Nc2c3ccccc3nc3ccccc23)c([N+](=O)[O-])c1 [Compound 13, 4-(acridin-9-ylamino)-3-nitrobenzoic acid] | 6.5 | 11.6 | 0.6 | 54.2 | 3.6 | 86.4 | 7.2 | cytotoxicity compared with reference or other tested compounds [4]: more cytotoxic than the corresponding 9-aminoacridine |
| NC(=O)c1ccc(Nc2c3ccccc3nc3ccccc23)c([N+](=O)[O-])c1 [Compound 14, 4-(acridin-9-ylamino)-3-nitrobenzamide] | – | – | 0.6 | – | 3.6 | – | 7.2 | – |
| amsacrine [reference compound] | – | – | 17.2 | – | – | – | – | IC50 (OVCAR8 (ovarian cancer); OVCAR8 cells): 21.9 µM; IC50 (MCF-7 (breast cancer)): 19.8 µM; IC50 [2]: 16.1 µM; IC50 (HT29 (colon carcinoma); HT29 cells): 2.2 µM; IC50 (H1299 (lung carcinoma); H1299 cells): 119 µM; IC50 ([3]; MCF7 mito cells, 24 h treatment, neutral red): 1.5 µM |
| CCOC1=C(Nc2c3ccccc3nc3ccccc23)C(=O)c2c(O)ccc(O)c2C1=O [Compound 41, 2-(acridin-9-ylamino)-3-ethoxy-5,8-dihydroxy-naphthoquinone] | – | – | 0.06 | – | 1.1 | 0.14 | 0.5 | cytotoxicity compared with reference or other tested compounds [4]: greater activity against all above mentioned cell lines than the anticancer drug amsacrine; also recorded: the most potent among the tested compounds |
| O=C(O)c1ccccc1CNc1c2ccccc2nc2ccccc12 [Compound 1, 2-(acridin-9-ylaminomethyl)benzoic acid] | 0.71 | 20.2 | 10.3 | 12.2 | 1.2 | 74.3 | 0.76 | cytotoxicity compared with reference or other tested compounds [4]: more cytotoxic than the corresponding 9-aminoacridine |
| O=[N+]([O-])c1ccc(O)cc1CNc1c2ccccc2nc2ccccc12 [Compound 4, N-(2-nitro-5-hydroxy-benzyl)acridin-9-amine] | 15.4 | 58.6 | 75.6 | 86.4 | 7.14 | > 100 | 18.4 | – |
| O=[N+]([O-])c1cc([N+](=O)[O-])c(Nc2c3ccccc3nc3ccccc23)cc1F [Compound 18, N-(2,4-dinitro-5-fluorophenyl)acridin-9-amine] | – | – | 0.3 | – | – | – | – | – |
| COc1cc([N+](=O)[O-])ccc1Nc1c2ccccc2nc2ccccc12 [Compound 20, N-(2-methoxy-4-nitrophenyl)acridin-9-amine] | 0.6 | – | 0.1 | – | 1.2 | – | – | – |

Source: patent US20120220537A1, “9-AMINOACRIDINE DERIVATIVES, THEIR PREPARATION AND USES” (ARIEL-UNIVERSITY RESEARCH AND DEVELOPMENT COMPANY LTD., priority 2009, published 2012)
